Experimental data as given in US8257931B2 (President and Fellows of Harvard College, priority 2005, dated 2012).
Entries after “also recorded” stand apart in the source; their conditions may differ. Read-outs that look alike come from different tables or passages of the source.

Assays:
A549 and HT29 cell lines = assay: Alamar Blue growth inhibition, statements covering both A549 and HT29; format: cell-based, human; conditions: for GI50: Homo sapiens
Protocol: (§1) Adherent human solid tumor cells were plated and maintained for 3 days in the presence of increasing concentration of the compounds, and cell proliferation was measured by alamar blue assay, where 10% of commercially available solution is added to the cell medium and measure fluorescence in 96-well plates at wavelength of 530 nm excitation and 590 nm emission. The data calculations were carried out as previously described.
(§2) Compounds were further tested for cell growth inhibition in a human lung cancer cell line (A549) and conlon cancer cell line (HT29). The Alamar Blue assay, which specifically measures the inhibition of cell proliferation, was used to assess the GI50's of the compounds.

eIF4E = eIF4E (Mus musculus, UniProt P63073); assay: FP assay competing with fluorogenic eIF4G-derived peptide (KRYDREFLLGF); format: binding; conditions: for binding affinity / potency in FP assay compared with hit compound 1: relative to hit compound 1
Sequence of eIF4E (P63073 whole entry): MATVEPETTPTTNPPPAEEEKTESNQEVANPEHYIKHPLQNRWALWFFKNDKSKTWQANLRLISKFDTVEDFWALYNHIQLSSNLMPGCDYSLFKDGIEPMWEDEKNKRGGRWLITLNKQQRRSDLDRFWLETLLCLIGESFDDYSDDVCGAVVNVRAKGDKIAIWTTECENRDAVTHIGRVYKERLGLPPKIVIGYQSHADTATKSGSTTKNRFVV
Protocol: The values indicate the average concentration needed to inhibit 50% of cell proliferation. […] A dual luciferase reporter mRNA was translated for 90 minutes at 30° C. in RedNova reticulocyte lysate (Novagen) in the presence of increasing concentrations of the compound. […] (purple) activity was measured and normalized against an untreated control reaction. The m^7GDP and emetine were used as the positive and negative controls, respectively.
Displacement of Nα-fluorescein tagged eIF4G-derived peptide by a competing ligand causes a large decrease in fluorescence polarization. The non-tagged version of the same eIF4G-derived peptide and DMSO were used as positive and negative control, respectively.

[1] = test system: cap-dependent translation; assay: In vitro translation of dual luciferase reporter in rabbit reticulocyte lysate, cap-dependent Renilla luciferase; format: biochemical
Source text: (§3) To determine the relative effects of the compound on cap dependent and independent translation, we utilized a bicistronic mRNA construct containing the gene for Renilla luciferase under the control of the cap and the message for firefly luciferase under the control of the cricket paralysis virus IRES (FIG. 2A). […] A dicistronic reporter construct containing the Renilla reniformis luciferase sequence after the 5′ UTR followed by the CrPV IRES and the firefly luciferase sequence was used to build a reporter construct plasmid. The reporter construct plasmid was linearized with BamHI and transcribed in vitro with an ARCA cap using the mMessage Machine T7 Ultra Kit (Ambion). In vitro translation reactions were carried out using Red Nova reticulocyte lysate (Novagen) with 2 mM magnesium acetate and […] potassium acetate, incubated at 30 degrees C. for 90 minutes. Translation of reporter genes was measured using the Dual-Glo luciferase assay (Promega) in a Wallac Victor^2 plate reader.
(§4) In addition to structurally characterizing the binding of our hit compounds, biological activities of the compounds was evaluated. […] To test this hypothesis in vitro, a translation assay in rabbit reticulocyte lysate was carried out. A dicistronic reporter construct containing a cap-dependent Renilla luciferase and a cricket paralysis virus IRES driven firefly luciferase was utilized to measure the relative affect of a compound on both translation mechanisms.
(§5) A functional cell free assay determined the relative effects of the compounds on cap- and IRES-dependent translations. This assay involved the in vitro translation of bicistronic mRNA reporter construct encoding for renilla luciferase in a cap-dependent and for firefly luciferase in a cap independent manner, the later driven by cricket paralysis virus IRES.

A549 lung cancer cells = assay: A549 proliferation, sulforhodamine B (SRB) assay; format: cell-based, human; conditions: sulforhodamine B assay, triplicate
Protocol: FIG. 28 is a graph showing the results of a cell proliferation assay. A549 cells, which are human lung cancer cells, are grown in plates for five days in medium containing 5% FCS and compound. The number of cells is quantified by staining with sulforhodamine B.

eIF4E/eIF4G interaction = biological target: T1, eIF4E/eIF4G interaction (Mus musculus, UniProt P63073); assay: Fluorescence polarization assay: binding of fluorescein-labeled eIF4G peptide to eIF4E; set-up: species or system murine; conditions: for IC50: triplicate, SD<±10%, read-out: IC50 (μM) (4E/4G FP)
T1 construct: made in house; host or cells: E. coli
T1 sequence (P63073 whole entry): as above
Protocol: We adapted this assay to a microwell plate format and used it to screen the 16,000 compound Chembridge DiverSet E library. […] For screening and subsequent peptide binding assays measurements of fluorescence polarization were made using an LJL Analyst plate reader. For the screening assay a solution containing approximately 5 μM meIF4E, 60 nM labeled peptide, 0.05% bovine γ-globulin, and 2 mM DTT in a buffer composed of 50 mM sodium phosphate and 50 mM potassium chloride at pH 6.5 was used. […] The curve fitting for estimation of binding constants used equations derived by Roehrl et al.^22 Measurements of fluorescence polarization and anisotropy were made in black 384-well plates (Corning) using an Analyst plate reader (LJL Biosystems) Compounds were transferred to plates during the screening using a custom-built Seiko pin transfer robot at the Institute for Chemistry and Cell Biology (ICCB) at Harvard Medical School.
A fluorescence polarization (FP) assay was developed to measure binding of a peptide containing the conserved eIF4E-binding motif to eIF4E.
The assay was adapted to a microwell plate format and used to screen a number of libraries comprised of small molecule libraries for potential eIF4E/eIF4G interaction inhibitors.

[2] = test system: human lung cancer cell line (A549); assay: A549 cell growth inhibition, Alamar Blue assay; format: cell-based
Protocol: as §1, §2

HT29 colon cancer cells = assay: HT29 cell growth, Alamar Blue assay; format: cell-based; conditions: Homo sapiens, HT-29; Alamar Blue assay
Protocol: as §1
Med. Chem. Lett. 14: 2547-50, 2004. […] .
as §2

IRES driven translation = assay: In vitro translation of dual luciferase reporter in rabbit reticulocyte lysate, CrPV IRES driven firefly luciferase; format: biochemical
Source text: as §3, §4, §5

[3] = HT29 or A549, at least one, read-out: GI50 in at least one cell line
[4] = HT29 and A549, both, read-out: GI50 in both cell lines
[5] = Homo sapiens, A549, Table 1 of b280
[6] = Homo sapiens, A549, Table 1 of b347

## O=C(O)C(Cc1ccccc1[N+](=O)[O-])=NNc1nc(-c2ccccc2)cs1 [4a]
A549 and HT29 cell lines; HT29 and A549
  growth inhibition of both cell lines compared with hit compound 1: dramatic decrease
eIF4E
  binding affinity / potency in FP assay compared with hit compound 1: dramatic decrease

## O=C(O)C(Cc1ccccc1)=NNc1nc(-c2ccccc2)cs1 [4b]
[1]
  cap-dependent translation (Renilla luciferase): Inhibition of cap-dependent translation
A549 lung cancer cells; Table 1
  GI50: 4 µM
eIF4E/eIF4G interaction; Table 1 of b280
  IC50: > 600 µM

## O=C(O)C(Cc1ccccc1[N+](=O)[O-])=NNc1nc(-c2ccc3ccccc3c2)cs1 [4c, 2-[(4-Naphthalen-2-yl-thiazol-2-yl)-hydrazono]-3-(2-nitro-phenyl)-propionic acid]
A549 and HT29 cell lines; [3]
  GI50: < 10 µM

## O=C(O)C(Cc1ccccc1[N+](=O)[O-])=NNc1nc(-c2ccc3c(c2)OCCO3)cs1 [4d, 2-{[4-(2,3-Dihydro-benzo[1,4]dioxin-6-yl)-thiazol-2-yl]-hydrazono}-3-(2-nitro-phenyl)-propionic acid]
A549 and HT29 cell lines; [3]
  GI50: < 10 µM
eIF4E
  binding affinity / potency in FP assay compared with hit compound 1: more than 2 fold

## O=C(O)C(Cc1ccccc1[N+](=O)[O-])=NNc1nc(-c2ccc3c(c2)OCCCO3)cs1 [4e, 2-{[4-(3,4-Dihydro-2H-benzo[b][1,4]dioxepin-7-yl)-thiazol-2-yl]-hydrazono}-3-(2-nitro-phenyl)-propionic acid]
A549 and HT29 cell lines; [4]
  GI50: > 24 µM
[2]
  GI50: 24 µM
HT29 colon cancer cells
  GI50: 45 µM
eIF4E
  binding affinity / potency in FP assay compared with hit compound 1: equipotent

## O=C(O)C(Cc1ccccc1[N+](=O)[O-])=NNc1nc(-c2ccc(-c3ccccc3)cc2)cs1 [4f, 2-[(4-Biphenyl-4-yl-thiazol-2-yl)-hydrazono]-3-(2-nitro-phenyl)-propionic acid]
A549 and HT29 cell lines; [3]
  GI50: < 10 µM

## O=C(O)C(Cc1ccccc1[N+](=O)[O-])=NNc1nc(-c2ccc(C3CCCCC3)cc2)cs1 [4g, 2-{[4-(4-Cyclohexyl-phenyl)-thiazol-2-yl]-hydrazono}-3-(2-nitro-phenyl)-propionic acid]
A549 and HT29 cell lines; [3]
  GI50: < 10 µM
[1]
  cap-dependent translation (Renilla luciferase): Inhibition of cap-dependent translation; also recorded: inhibit dose-dependently; also recorded: more effective
eIF4E; relative to 4f
  potency in FP assay compared with 4f: 2 fold
IRES driven translation
  IRES driven / cap-independent translation (firefly luciferase): enhance

## O=C(O)C(Cc1ccccc1[N+](=O)[O-])=NNc1nc(-c2ccc(N3CCOCC3)cc2)cs1 [4h, 2-{[4-(4-Morpholin-4-yl-phenyl)-thiazol-2-yl]-hydrazono}-3-(2-nitro-phenyl)-propionic acid]
A549 and HT29 cell lines; [4]
  GI50: > 24 µM
eIF4E
  binding affinity / potency in FP assay compared with hit compound 1: significantly less active

## O=C(O)C(Cc1ccccc1[N+](=O)[O-])=NNc1nc(-c2ccc(N3CCCC3)cc2)cs1 [4i, 3-(2-Nitro-phenyl)-2-{[4-(4-pyrrolidin-1-yl-phenyl)-thiazol-2-yl]-hydrazono}-propionic acid]
A549 and HT29 cell lines; [4]
  GI50: > 24 µM
eIF4E
  binding affinity / potency in FP assay compared with hit compound 1: significantly less active

## O=C(O)C(Cc1ccccc1[N+](=O)[O-])=NNc1nc(-c2ccc(N=Nc3ccccc3)cc2)cs1 [4j]
eIF4E
  binding affinity / potency in FP assay compared with hit compound 1: ~3 fold

## O=C(O)/C(Cc1ccccc1)=N/Nc1nc(-c2ccccc2)c(-c2ccccc2)s1 [Z-10, 2-[(4,5-Diphenyl-thiazol-2-yl)-hydrazono]-3-phenyl-propionic acid]
A549 lung cancer cells; [5]
  GI50: 1 µM
A549 lung cancer cells; [6]
  GI50: 1 µM
eIF4E/eIF4G interaction; Table 1 of b280
  IC50: 50 µM
eIF4E/eIF4G interaction; Table 1 of b347
  IC50: 50 µM
eIF4E/eIF4G interaction; eIF4E/4G assay
  potency compared with its E isomer: two-fold more potent
  potency compared with the initial hit: one order of magnitude more potent

## O=C(O)/C(Cc1ccccc1)=N/Nc1nc2ccccc2s1 [Z-11, 2-(Benzothiazol-2-yl-hydrazono)-3-phenyl-propionic acid]
A549 lung cancer cells; Table 1
  GI50: > 20 µM
A549 lung cancer cells; Table 1, listed as Z-4p
  GI50: > 20 µM
eIF4E/eIF4G interaction; Table 1 of b280
  IC50: > 600 µM
eIF4E/eIF4G interaction; Table 1 of b347
  IC50: > 600 µM

## COC(=O)/C(Cc1ccccc1)=N/Nc1nc(-c2ccccc2)cs1 [Z-13, 3-Phenyl-2-[(4-phenyl-thiazol-2-yl)-hydrazono]-propionic acid methyl ester]
A549 lung cancer cells; [5]
  GI50: 11 µM
A549 lung cancer cells; [6]
  GI50: 11 µM
eIF4E/eIF4G interaction; Table 1 of b280
  IC50: > 600 µM
eIF4E/eIF4G interaction; Table 1 of b347
  IC50: > 600 µM

## OC/C(Cc1ccccc1)=N/Nc1nc(-c2ccccc2)cs1 [Z-15, 3-Phenyl-2-[(4-phenyl-thiazol-2-yl)-hydrazono]-propan-1-ol]
A549 lung cancer cells; [5]
  GI50: 14 µM
A549 lung cancer cells; [6]
  GI50: 14 µM
eIF4E/eIF4G interaction; Table 1 of b280
  IC50: > 600 µM
eIF4E/eIF4G interaction; Table 1 of b347
  IC50: > 600 µM

## O=C(O)/C(Cc1ccccc1)=N\Nc1nnc(-c2ccccc2)s1 [Z-16, 3-Phenyl-2-[(5-phenyl-[1,3,4]thiadiazol-2-yl)-hydrazono]-propionic acid]
A549 lung cancer cells; [5]
  GI50: > 10 µM
A549 lung cancer cells; [6]
  GI50: > 10 µM
eIF4E/eIF4G interaction; Table 1 of b280
  IC50: > 600 µM
eIF4E/eIF4G interaction; Table 1 of b347
  IC50: > 600 µM

## O=C(O)/C(Cc1ccccc1)=N/Nc1ccc(-c2ccccc2)nn1 [Z-17, 3-Phenyl-2-[(6-phenyl-pyridazin-3-yl)-hydrazono]-propionic acid]
A549 lung cancer cells; [5]
  GI50: > 10 µM
eIF4E/eIF4G interaction; Table 1 of b280
  IC50: > 600 µM

## O=C(O)/C(Cc1ccccc1)=N/NC(=S)NCc1ccccc1 [compound 8]
A549 lung cancer cells; [5]
  GI50: > 10 µM
A549 lung cancer cells; [6]
  GI50: > 10 µM
eIF4E/eIF4G interaction; Table 1 of b280
  IC50: 550 µM
eIF4E/eIF4G interaction; Table 1 of b347
  IC50: 550 µM

## O=C(Cc1ccccc1)NNc1nc(-c2ccccc2)cs1 [compound 12]
A549 lung cancer cells; [6]
  GI50: > 20 µM
eIF4E/eIF4G interaction; Table 1 of b347
  IC50: > 600 µM

## O=[N+]([O-])c1ccccc1CC(CO)NNc1nc(-c2ccc(Cl)c(Cl)c2)cs1 (stereo not drawn) [compound 14, 2-{N′-[4-(3,4-Dichloro-phenyl)-thiazol-2-yl]-hydrazino}-3-(2-nitro-phenyl)-propan-1-ol]
A549 lung cancer cells; [6]
  GI50: 4 µM
eIF4E/eIF4G interaction; Table 1 of b347
  IC50: > 600 µM

## CC[C@H]1CN2CCc3cc(OC)c(OC)cc3[C@@H]2C[C@@H]1C[C@H]1NCCc2cc(OC)c(OC)cc21 [emetine, reference compound]
[1]
  cap-dependent translation (Renilla luciferase): inhibits translation of both messages equally well
IRES driven translation
  IRES driven / cap-independent translation (firefly luciferase): inhibits translation of both messages equally well

## Cn1c[n+]([C@@H]2O[C@H](COP(=O)(O)OP(=O)([O-])O)[C@@H](O)[C@H]2O)c2nc(N)[nH]c(=O)c21 [m7GDP, reference compound]
[1]
  cap-dependent translation (Renilla luciferase): specifically inhibits the cap-dependent message
